Laboratory results as given in patent publication US11911346B2, “Orally administrated therapeutic for treating mild cognitive impairment (MCI) and improving human cognitive function” (BrainCare LLC, priority 2021, dated 2024).

Tested on: cognitive function of participants with Subjective Cognitive Decline
Experiment: Cognitive Failures Questionnaire (CFQ), 8-week randomized study of one or two BCP capsules daily
Type: in vivo, human
Conditions: two capsules daily (180 mg BCP); for CFQ score: Do you bump into people? / CFQ score: Do you confuse left and right when giving people directions? / CFQ score: Do you daydream when you ought to be listening to something? / CFQ score: Do you fail to hear people speaking to you when you are doing something? / CFQ score: Do you fail to listen to people's names when you are meeting them for the first time? / CFQ score: Do you fail to notice signposts on the road? / CFQ score: Do you fail to see what you want in a supermarket (although it's there)? / CFQ score: Do you find that you drop things? / CFQ score: Do you find that you forget appointments? / CFQ score: Do you find you accidentally misplace things like placing the fruit in the cupboard and the bowl in the refrigerator? / CFQ score: Do you find you can't quite remember something although it's “on the tip of your tongue”? / CFQ score: Do you find you can't think of anything to say? / CFQ score: Do you find you forget people's names? / CFQ score: Do you find you forget what you came to the store to buy? / CFQ score: Do you find you forget whether you've turned off a light or locked the door? / CFQ score: Do you find you forget which way to turn on a road you know well but rarely use? / CFQ score: Do you find you forget why you went from one place of the house to the other? / CFQ score: Do you find yourself suddenly wondering if you used a word correctly? / CFQ score: Do you forget where you put something like a newspaper or a book? / CFQ score: Do you have trouble making up your mind? / CFQ score: Do you lose track of paying bills? / CFQ score: Do you lose your temper and regret it? / CFQ score: Do you read something and find you haven't been thinking about it and must read it again? / CFQ score: Do you say something and realize afterwards that it might be taken as an insult? / CFQ score: Do you start doing one thing at home and get distracted and do something else (unintentionally)? / Distractibility summed sub-score of CFQ / False triggering summed sub-score of CFQ / Forgetfulness summed sub-score of CFQ / Total CFQ summed sub-score: lower is better
[1] = week 4, listed as beta-caryophyllene
[2] = week 8, listed as beta-caryophyllene

## C=C1CC/C=C(\C)CC[C@@H]2[C@@H]1CC2(C)C [BCP, beta-caryophyllene]
Week 4
  CFQ % better vs. baseline: Do you find yourself suddenly wondering if you used a word correctly?: 29% better
  CFQ % better vs. baseline: Do you forget where you put something like a newspaper or a book?: 19%
  CFQ % better vs. baseline: Do you have trouble making up your mind?: 21% better
  CFQ % better vs. baseline: Do you lose track of paying bills?: 10% better
  CFQ % better vs. baseline: Do you lose your temper and regret it?: 26% better
  CFQ % better vs. baseline: Do you read something and find you haven't been thinking about it and must read it again?: 39%
  CFQ % better vs. baseline: Do you start doing one thing at home and get distracted and do something else (unintentionally)?: 30%
  CFQ change vs. baseline: Do you say something and realize afterwards that it might be taken as an insult?: No change
  Distractibility summed sub-score of CFQ, % better vs. baseline: 20%
  False triggering summed sub-score of CFQ, % better vs. baseline: 33%
  Forgetfulness summed sub-score of CFQ, % better vs. baseline: 27%
  Total CFQ summed sub-score, % better vs. baseline: 25%
  CFQ score: Do you bump into people?: 0.6 ± 0.8
  CFQ score: Do you confuse left and right when giving people directions?: 0.7 ± 0.8
  CFQ score: Do you daydream when you ought to be listening to something?: 1.3 ± 0.9
  CFQ score: Do you fail to hear people speaking to you when you are doing something?: 1.5 ± 1.1
  CFQ score: Do you fail to listen to people's names when you are meeting them for the first time?: 1.8 ± 1.2
  CFQ score: Do you fail to notice signposts on the road?: 0.7 ± 0.7
  CFQ score: Do you fail to see what you want in a supermarket (although it's there)?: 1.1 ± 1.0
  CFQ score: Do you find that you drop things?: 1.1 ± 0.7
  CFQ score: Do you find that you forget appointments?: 0.7 ± 0.8
  CFQ score: Do you find you accidentally misplace things like placing the fruit in the cupboard and the bowl in the refrigerator?: 0.7 ± 0.9
  CFQ score: Do you find you can't quite remember something although it's “on the tip of your tongue”?: 2.0 ± 1.0^
  CFQ score: Do you find you can't think of anything to say?: 0.8 ± 0.8
  CFQ score: Do you find you forget people's names?: 2.0 ± 0.9
  CFQ score: Do you find you forget what you came to the store to buy?: 1.0 ± 0.9
  CFQ score: Do you find you forget whether you've turned off a light or locked the door?: 1.1 ± 0.9
  CFQ score: Do you find you forget which way to turn on a road you know well but rarely use?: 0.6 ± 0.8
  CFQ score: Do you find you forget why you went from one place of the house to the other?: 1.4 ± 0.7^
  CFQ score: Do you find yourself suddenly wondering if you used a word correctly?: 1.0 ± 1.1
  CFQ score: Do you forget where you put something like a newspaper or a book?: 1.7 ± 0.9^
  CFQ score: Do you have trouble making up your mind?: 1.5 ± 1.1
  CFQ score: Do you lose track of paying bills?: 0.9 ± 1.0
  CFQ score: Do you lose your temper and regret it?: 1.1 ± 0.8
  CFQ score: Do you read something and find you haven't been thinking about it and must read it again?: 1.5 ± 0.9
  CFQ score: Do you say something and realize afterwards that it might be taken as an insult?: 1.4 ± 0.9
  CFQ score: Do you start doing one thing at home and get distracted and do something else (unintentionally)?: 1.9 ± 0.8
  Distractibility summed sub-score of CFQ: 10 ± 5
  False triggering summed sub-score of CFQ: 7 ± 4^
  Forgetfulness summed sub-score of CFQ: 12 ± 5^
  Total CFQ summed sub-score: 29 ± 14
[1]
  CFQ % better vs. baseline: Do you daydream when you ought to be listening to something?: 28% better
  CFQ % better vs. baseline: Do you find you can't quite remember something although it's “on the tip of your tongue”?: 20% better
  CFQ % better vs. baseline: Do you find you forget whether you've turned off a light or locked the door?: 45% better
  CFQ % better vs. baseline: Do you find you forget why you went from one place of the house to the other?: 39% better
  CFQ % better vs. baseline: Do you forget where you put something like a newspaper or a book?: 19% better
  CFQ % better vs. baseline: Do you read something and find you haven't been thinking about it and must read it again?: 39% better
  CFQ % better vs. baseline: Do you start doing one thing at home and get distracted and do something else (unintentionally)?: 30% better
  Distractibility summed sub-score of CFQ, % better vs. baseline: 20% better
  False triggering summed sub-score of CFQ, % better vs. baseline: 33% better
  Forgetfulness summed sub-score of CFQ, % better vs. baseline: 27% better
  Total CFQ summed sub-score, % better vs. baseline: 25% better
Week 8
  CFQ % better vs. baseline: Do you bump into people?: 29% better
  CFQ % better vs. baseline: Do you confuse left and right when giving people directions?: 22% better
  CFQ % better vs. baseline: Do you daydream when you ought to be listening to something?: 33%
  CFQ % better vs. baseline: Do you fail to hear people speaking to you when you are doing something?: 23% better
  CFQ % better vs. baseline: Do you fail to listen to people's names when you are meeting them for the first time?: 17% better
  CFQ % better vs. baseline: Do you fail to notice signposts on the road?: 20% better
  CFQ % better vs. baseline: Do you fail to see what you want in a supermarket (although it's there)?: 23% better
  CFQ % better vs. baseline: Do you find that you drop things?: 33% better
  CFQ % better vs. baseline: Do you find that you forget appointments?: 50% better
  CFQ % better vs. baseline: Do you find you accidentally misplace things like placing the fruit in the cupboard and the bowl in the refrigerator?: 63%
  CFQ % better vs. baseline: Do you find you can't quite remember something although it's “on the tip of your tongue”?: 12% better
  CFQ % better vs. baseline: Do you find you can't think of anything to say?: 27% better
  CFQ % better vs. baseline: Do you find you forget people's names?: 20% better
  CFQ % better vs. baseline: Do you find you forget what you came to the store to buy?: 27% better
  CFQ % better vs. baseline: Do you find you forget whether you've turned off a light or locked the door?: 40%
  CFQ % better vs. baseline: Do you find you forget which way to turn on a road you know well but rarely use?: 44% better
  CFQ % better vs. baseline: Do you find you forget why you went from one place of the house to the other?: 39%
  CFQ % better vs. baseline: Do you find yourself suddenly wondering if you used a word correctly?: 43% better
  CFQ % better vs. baseline: Do you forget where you put something like a newspaper or a book?: 29%
  CFQ % better vs. baseline: Do you have trouble making up your mind?: 26% better
  CFQ % better vs. baseline: Do you lose track of paying bills?: 30% better
  CFQ % better vs. baseline: Do you lose your temper and regret it?: 33% better
  CFQ % better vs. baseline: Do you read something and find you haven't been thinking about it and must read it again?: 39%
  CFQ % better vs. baseline: Do you say something and realize afterwards that it might be taken as an insult?: 14% better
  CFQ % better vs. baseline: Do you start doing one thing at home and get distracted and do something else (unintentionally)?: 30%
  Distractibility summed sub-score of CFQ, % better vs. baseline: 29%
  False triggering summed sub-score of CFQ, % better vs. baseline: 36%
  Forgetfulness summed sub-score of CFQ, % better vs. baseline: 27%
  Total CFQ summed sub-score, % better vs. baseline: 30%
  CFQ score: Do you bump into people?: 0.5 ± 0.6
  CFQ score: Do you confuse left and right when giving people directions?: 0.7 ± 0.8
  CFQ score: Do you daydream when you ought to be listening to something?: 1.2 ± 0.9
  CFQ score: Do you fail to hear people speaking to you when you are doing something?: 1.3 ± 1.1
  CFQ score: Do you fail to listen to people's names when you are meeting them for the first time?: 1.9 ± 1.1
  CFQ score: Do you fail to notice signposts on the road?: 0.8 ± 0.7
  CFQ score: Do you fail to see what you want in a supermarket (although it's there)?: 1.0 ± 0.8
  CFQ score: Do you find that you drop things?: 1.0 ± 0.7
  CFQ score: Do you find that you forget appointments?: 0.5 ± 0.5
  CFQ score: Do you find you accidentally misplace things like placing the fruit in the cupboard and the bowl in the refrigerator?: 0.3 ± 0.5
  CFQ score: Do you find you can't quite remember something although it's “on the tip of your tongue”?: 2.2 ± 0.8
  CFQ score: Do you find you can't think of anything to say?: 0.8 ± 0.7
  CFQ score: Do you find you forget people's names?: 2.0 ± 1.0
  CFQ score: Do you find you forget what you came to the store to buy?: 1.1 ± 0.9
  CFQ score: Do you find you forget whether you've turned off a light or locked the door?: 1.2 ± 0.7
  CFQ score: Do you find you forget which way to turn on a road you know well but rarely use?: 0.5 ± 0.6
  CFQ score: Do you find you forget why you went from one place of the house to the other?: 1.4 ± 0.8^
  CFQ score: Do you find yourself suddenly wondering if you used a word correctly?: 0.8 ± 0.9
  CFQ score: Do you forget where you put something like a newspaper or a book?: 1.5 ± 0.9^
  CFQ score: Do you have trouble making up your mind?: 1.4 ± 0.9
  CFQ score: Do you lose track of paying bills?: 0.7 ± 0.9
  CFQ score: Do you lose your temper and regret it?: 1.0 ± 0.7
  CFQ score: Do you read something and find you haven't been thinking about it and must read it again?: 1.4 ± 0.8
  CFQ score: Do you say something and realize afterwards that it might be taken as an insult?: 1.2 ± 0.7
  CFQ score: Do you start doing one thing at home and get distracted and do something else (unintentionally)?: 1.9 ± 0.7
  Distractibility summed sub-score of CFQ: 9 ± 4
  False triggering summed sub-score of CFQ: 7 ± 4^
  Forgetfulness summed sub-score of CFQ: 12 ± 5^
  Total CFQ summed sub-score: 27 ± 11
[2]
  CFQ % better vs. baseline: Do you daydream when you ought to be listening to something?: 33% better
  CFQ % better vs. baseline: Do you find you accidentally misplace things like placing the fruit in the cupboard and the bowl in the refrigerator?: 63% better
  CFQ % better vs. baseline: Do you find you forget whether you've turned off a light or locked the door?: 40% better
  CFQ % better vs. baseline: Do you find you forget why you went from one place of the house to the other?: 39% better
  CFQ % better vs. baseline: Do you forget where you put something like a newspaper or a book?: 29% better
  CFQ % better vs. baseline: Do you read something and find you haven't been thinking about it and must read it again?: 39% better
  CFQ % better vs. baseline: Do you start doing one thing at home and get distracted and do something else (unintentionally)?: 30% better
  Distractibility summed sub-score of CFQ, % better vs. baseline: 29% better
  False triggering summed sub-score of CFQ, % better vs. baseline: 36% better
  Forgetfulness summed sub-score of CFQ, % better vs. baseline: 27% better
  Total CFQ summed sub-score, % better vs. baseline: 30% better
